From article PMC9811519 (RSC Chemical Biology, 2022)
Where a SMILES comes first, the peptide text is derived from it. The star is where a group is joined. X1 = O=C(O)CN(CCN(CC(=O)O)CC(=O)O)CCN(CC(=O)O)CC(=O)NCCN1C(=O)CC(*)C1=O; Myristoyl = CCCCCCCCCCCCCC(=O)*

Key:
[1] = test system: 5T33 murine myeloma cells; experiment: Cell viability, trypan blue exclusion assay
Protocol: Cell viability was assessed using a trypan blue exclusion assay (Fig. 2(d) and (e)).
(§1) After cell labelling, cells were washed twice with PBS and 300 μL of fresh growth media was added. Uptake efficiency was quantified at this time-point by measuring pellet and supernatant in the γ-counter. At 2, 5 and 20 h after addition of fresh media, cells were washed twice and activity in both the supernatant (original supernatant and washes) and pellet was measured using a γ-counter. Efflux was quantified as the activity of the supernatant divided by the total activity (supernatant + pellet). Cell viability was assessed prior to radiolabelling and at each time point by trypan blue exclusion.[54]

[2] = test system: 5T33 murine myeloma cells; experiment: Comparative cell uptake (cell radiolabelling yield), 10^5 cells, 2 MBq; format: cell-based
Protocol: Cell pellets were obtained by centrifugation, washed and gamma-counted.
as §1

[3] = test system: 5T33 murine myeloma cells; experiment: Efflux / retention of indium-111 by radiolabelled cells; format: cell-based; conditions: 5T33 cells washed after radiolabelling, γ-counter, SD of 3 biological replicates
Protocol: To measure efflux, cells were washed after radiolabelling and re-incubated in fresh growth medium for 2–20 h.
as §1

NSG male mice = experiment: SPECT/CT imaging and ex vivo biodistribution; format: in vivo, mouse
Protocol: A SPECT/CT scan was acquired for 2 h immediately after injection (Fig. 3(a)).
Animal imaging studies were ethically reviewed by an Animal Welfare & Ethical Review Board at King's College London and carried out in accordance with the Animals (Scientific Procedures) Act 1986 (ASPA) UK Home Office regulations governing animal experimentation. […] Animals were maintained under isoflurane inhalation anaesthesia (2– 2.5% Isoflurane in air) for 2 h post-injection. […] The whole body SPECT scan time was 30 min × 4, (conducted sequentially) with a frame time of 40 s (using a 4-head scanner with 4 × 9 [1.4 mm] pinhole collimators in helical scanning mode) followed by a helical CT (45 kVP X-ray source, 1000 ms exposure time in 180 projections over 7.5 min). After this, animals were allowed to recover. SPECT/CT scans were acquired again, 1 day PI, after which all animals were culled (by increasing the dose of anaesthesia followed by cervical dislocation to confirm death) and organs/tissues harvested, weighed and radioactivity counted using a gamma counter. SPECT/CT images were reconstructed in a 256 × 256 matrix using HiSPECT (ScivisGmbH), a reconstruction software package and visualised and quantified using VivoQuant v.3.0 software (InVicro LLC., Boston, USA).

Structure (SMILES)	Cells viable after radiolabelling ([1]; 5T33 cells, 20 h after radiolabelling, trypan blue exclusion, prior to radiolabelling 89 ± 4% (DTPA-CTP group) and 96 ± 0.3% (oxine group), 3 biological replicates) [%]	Cell radiolabelling yield ([2]; 1 × 10^5 5T33 cells in 200 μL, 2 MBq, 37 °C, DTPA-CTP tracer 3 h in serum-containing media, oxine tracer 30 min in serum-free media, washed, γ-counted, SD of 3 biological replicates) [%AR]	Average radioactivity per cell ([2]; 1 × 10^5 5T33 cells, 2 MBq added radioactivity, corresponds to the cell radiolabelling yield) [Bq per cell]	Indium-111 remaining associated with cells ([3]; 2 h after re-incubation in fresh growth medium) [%]	Indium-111 remaining associated with cells ([3]; 20 h after re-incubation in fresh growth medium) [%]	Cells viable after radiolabelling ([1]; 20 h) [%]	Localisation of indium-111 activity by SPECT/CT (NSG male mice; NSG male mice, intravenous via tail vein, 0–2 h PI, one animal per group scanned)	Time to dissociation from cell membranes post-administration of cells (NSG male mice; [^111In]In-DTPA-CTP-labelled 5T33 cells, intravenous, NSG mice, inferred from SPECT) [h]
[111In+3].[O-]c1cccc2cccnc12.[O-]c1cccc2cccnc12.[O-]c1cccc2cccnc12 [[^111In]In-(oxine)3]	74 ± 6	20.6 ± 6.1	4.1 ± 1.0	76.0 ± 5.1	46.0 ± 9.6			
CCCCCCCCCCCCCC(=O)NCCCC[C@H](NC(=O)CCCCCCCCCCCCC)C(=O)N[C@@H](CO)C(=O)N[C@@H](CO)C(=O)N[C@@H](CCCCN)C(=O)N[C@@H](CO)C(=O)N1CCC[C@H]1C(=O)N[C@@H](CO)C(=O)N[C@@H](CCCCN)C(=O)N[C@@H](CCCCN)C(=O)N[C@@H](CC(=O)O)C(=O)N[C@@H](CC(=O)O)C(=O)N[C@@H](CCCCN)C(=O)N[C@@H](CCCCN)C(=O)N1CCC[C@H]1C(=O)NCC(=O)N[C@@H](CC(=O)O)C(=O)N[C@@H](CSC1CC(=O)N(CCNC(=O)CN(CCN(CCN(CC(=O)O)CC(=O)O)CC(=O)O)CC(=O)O)C1=O)C(=O)O (some centres unmarked) [[^111In]In-DTPA-CTP, metal not drawn] (Myristoyl-K(Myristoyl)SSKSPSKKDDKKPGDC(X1)-OH)						88 ± 2	indium-111 activity in the blood pool and liver	1 to 2
